Assay results as given in US6335039B1, “Pharmaceutical formulations comprising vegetal material selected from trichilia” (Laboratorio Catarinense S/A, priority 1997, dated 2002).

What was measured:
[1] = tested on: corpus cavernosum of the rabbit (RbCC); assay type: cell-based; details: for relaxation of RbCC in presence of ATP-dependent potassium channel blocker: blocker 10 μM (Glybenclamide, FIG. 4)
HCC = assay: Superfusion of isolated corpus cavernosum (human, HCC); assay type: cell-based
nociception by formalin = assay: Formalin-induced licking; assay type: in vivo, mice; details: naloxone 10 minutes before; acute and inflammatory phases, formalin 2.5% w/v
Description: Male Swiss mice varying from 25 to 35 g, were housed at 22° C.±2° C. under a 12 h light/12 h dark circle and with access to water and purina. The animals were acclimatized to the laboratory for at least 1 hour before testing and were used once throughout the experiments.
Mice were lightly anaesthetized, with exception of those used to analyze the first phase of fromalin-induced pain. The surface of the animals paws was injected with 20 μL of 2.5% w/v formalin. Two groups of mice (mice treated with T. catigua and control mice) were simultaneously observed over a period from 0 to 30 min after the formalin injection. The total time spent by the animal licking the injected paw was timed with a chronometer and was considered as an indicative of pain. The first phase of the nociceptive response normally occurred […] the formalin injection and the second phase was from 15 to 30 min after such induction. These phases represent the neurogenic and inflammatory responses, respectively. In order to avoid pharmacokinetic influences, different groups of animals were used to analyze each phase of the experiment. Alternatively, animals were pretreated with naloxone 10 min prior to the administration of compositions comprising an extract of T. catigua.

SMILES: N=C(N)NCCC[C@H](N)C(=O)O [L-arg, L-arginine]
- RbCC tonus on subsequent infusion after L-NAME ([1]; L-arg 300 μM after L-NAME, FIG. 2): reverted the enhanced tonus

SMILES: COC(=O)[C@@H](N)CCCNC(=N)N[N+](=O)[O-] [L-NAME, N^m-nitro-L-arginine methyl ester]
- basal tonus of RbCC ([1]; infusion of L-NAME 10 μM, FIG. 2): enhanced the basal tonus
- HCC tonus (HCC; infusion of L-NAME): enhanced the HCC tonus

SMILES: CN1CC[C@]23c4c5ccc(O)c4O[C@H]2[C@@H](O)C=C[C@H]3[C@H]1C5 [morphine]
- analgesic action after pretreatment with naloxone (nociception by formalin): reverted

SMILES: CC1(C)Oc2ccc(C#N)cc2C(N2CCCC2=O)C1O (stereo not shown) [CMK, cromakalim]
- relaxation of RbCC in presence of ATP-dependent potassium channel blocker [1]: inhibited

SMILES: O=[N+]([O-])OCC(CO[N+](=O)[O-])O[N+](=O)[O-] [GTN, glyceryltrinitrate]
- relaxation of RbCC in presence of tetrodotoxin [1]: did not present any effect
- relaxation of RbCC during L-NAME infusion ([1]; L-NAME 10 μM, FIG. 2, 6 experiments): not affected
- relaxation of RbCC in presence of atropine ([1]; atropine 1 μM, FIG. 3, 4 experiments): did not present any effect
- relaxation of RbCC in presence of ATP-dependent potassium channel blocker [1]: without affecting
- relaxation of HCC during L-NAME infusion (HCC; Ach 0.6 μM, GTN 1.3 μM, Cat 10-100 μL, 4 tissue strips from 2 donators): not significantly affected
